Source: US5891877A, “Pharmaceutical compounds” (Xenova Limited, priority 1996, dated 1999)
Where a name gives a salt, the structure may show the parent alone.

Biological target: PAI-1 (Homo sapiens, UniProt P05121)
Test: PAI-1 inhibition in the S2251 chromogenic substrate assay (PAI functional assay)
Assay type: biochemical
Conditions: for INHIBITION OF PAI-1 (degree of inhibition): unit assumed; for IC50: PAI-1, S2251 assay; for inhibition at 20 µM / inhibition at 50 µM / inhibition at 100 µM: read-out: INHIBITION OF PAI-1 (degree of inhibition)
Description: In this assay, a compound is incubated with PAI-1 prior to addition to the tPA assay system. Inhibition of PAI-1 results in the production of plasmin from plasminogen. […]
Compounds of formula (A) were tested in a PAI chromogenic substrate assay. […] In turn, the plasmin cleaved the chromogenic substrate S2251 (Kabi-Vitrum) producing pNA (p-nitroaniline) which was detected scectrophotometrically at 405 nm.

Sequence of PAI-1 (P05121 24-402): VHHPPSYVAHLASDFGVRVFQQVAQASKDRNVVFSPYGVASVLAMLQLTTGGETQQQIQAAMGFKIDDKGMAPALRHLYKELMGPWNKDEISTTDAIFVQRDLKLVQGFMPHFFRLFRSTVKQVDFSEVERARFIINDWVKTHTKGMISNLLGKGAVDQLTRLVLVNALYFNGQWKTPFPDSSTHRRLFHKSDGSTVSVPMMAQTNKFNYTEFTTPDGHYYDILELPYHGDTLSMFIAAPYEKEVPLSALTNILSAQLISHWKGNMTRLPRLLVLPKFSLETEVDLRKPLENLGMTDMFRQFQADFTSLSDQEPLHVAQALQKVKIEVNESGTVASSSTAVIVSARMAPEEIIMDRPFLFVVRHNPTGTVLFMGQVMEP

| INHIBITION OF PAI-1 (degree of inhibition) (25 μm, Table 1, first part) | INHIBITION OF PAI-1 (degree of inhibition) (50 μm, Table 1, first part) | INHIBITION OF PAI-1 (degree of inhibition) (100 μm, Table 1, first part) | inhibition at 20 µM (20 μM, Table 1, second part) | inhibition at 100 µM (100 μM, Table 1, second part) | Compound | also measured |
| --- | --- | --- | --- | --- | --- | --- |
| 18% | 48% | 68% | – | – | COc1ccc(/C=c2\[nH]c(=O)/c(=C/c3ccoc3)[nH]c2=O)cc1 [Compound 1476, (3Z,6Z)-3-(4-Methoxybenzylidene)-6-(3-furylmethylene)-2,5-piperazinedione] | IC50 (Table 2): 50 to 100 µM |
| – | – | – | – | – | COc1cc2c(cc1OC)CN(CCc1ccc(NC(=O)c3ccc(/C=c4\[nH]c(=O)/c(=C/c5ccccc5)[nH]c4=O)cc3)cc1)CC2 [Compound 5393.HCl] | INHIBITION OF PAI-1 (degree of inhibition) (20 μM, Table 1, second part): 58%; IC50 (Table 1, second part): 20 µM |
| – | – | – | 59% | – | O=C(NCCCN1CCc2ccccc2C1)c1ccc(/C=c2\[nH]c(=O)/c(=C/c3ccccc3)[nH]c2=O)cc1 [Compound 5394, N-(3-(1,2,3,4-Tetrahydro-2-isoquinolyl)propyl)-4-((3Z,6Z)-6-benzylidene-2,5-dioxo-3-piperazinylidene)methylbenzamide] | IC50 (Table 1, second part): 16 µM |
| 50% | 36% | 27% | – | – | O=c1[nH]/c(=C\c2ccc(OCCn3ccnc3)cc2)c(=O)[nH]/c1=C\c1ccccc1 [Compound 1910, (3Z,6Z)-3-Benzylidene-6-(4-(2-imidazolylethoxy)benzylidene)-2,5-piperazinedione] | INHIBITION OF PAI-1 (degree of inhibition) (6.25 μm, Table 1, first part): 63%; INHIBITION OF PAI-1 (degree of inhibition) (12.5 μm, Table 1, first part): 61%; IC50 (Table 2): 5 to 10 µM |
| – | – | – | 76% | – | COc1cc2c(cc1OC)CN(CCc1ccc(NC(=O)c3ccc(/C=c4\[nH]c(=O)/c(=C/c5ccccc5)[nH]c4=O)cc3)cc1)CC2 [Compound 5393] | IC50 (Table 1, second part): 14 µM |
| – | – | – | 42% | 77% | CN(C)CCCOc1ccc(/C=c2\[nH]c(=O)/c(=C/c3ccsc3)[nH]c2=O)cc1 [Compound 5042, (3Z,6Z)-6-(4-(3-Dimethylaminopropoxy)benzylidene)-3-(3-Thenylidene)-2,5-piperazinedione] | inhibition at 50 µM (Table 1, second part): 64% |
| 73% | 48% | 76% | – | – | O=c1[nH]/c(=C\c2ccc3c(c2)OCO3)c(=O)[nH]/c1=C\c1ccccc1 [Compound 1808, (3Z,6Z)-3-Benzylidene-6-(3,4-methylenedioxybenzylidene)-2,5-piperazinedione] | INHIBITION OF PAI-1 (degree of inhibition) (6.25 μm, Table 1, first part): 1%; INHIBITION OF PAI-1 (degree of inhibition) (12.5 μm, Table 1, first part): 2% |
| – | – | – | 0% | 0% | O=c1[nH]/c(=C\c2ccc(OCC(O)CN3CCOCC3)cc2)c(=O)[nH]/c1=C\c1ccccc1 (stereo not shown) [Compound 5040, (3Z,6Z)-6-Benzylidene-3-(4-(2-hydroxy-3-morpholinopropoxy)benzylidene)-2,5-piperazinedione] | inhibition at 50 µM (Table 1, second part): 1% |
| 84% | 76% | 81% | – | – | COc1ccc(/C=c2\[nH]c(=O)/c(=C/c3ccc4c(c3)OCO4)[nH]c2=O)cc1 [Compound 1809, (3Z,6Z)-3-(4-Methoxybenzylidene)-6-(3,4-methylenedioxybenzylidene)-2,5-piperazinedione] | INHIBITION OF PAI-1 (degree of inhibition) (6.25 μm, Table 1, first part): 1%; INHIBITION OF PAI-1 (degree of inhibition) (12.5 μm, Table 1, first part): 7% |
| – | – | – | – | – | CN(C)CCCOc1ccc(/C=c2\[nH]c(=O)/c(=C/c3ccc(C(=O)N4CCc5ccccc5C4)cc3)[nH]c2=O)cc1 [Compound 5367] | IC50 (Table 1, second part): 18 µM |
| – | – | – | 75% | 70% | CN(C)CCOCc1ccc(/C=c2\[nH]c(=O)/c(=C/c3ccsc3)[nH]c2=O)cc1 [Compound 5069, (3Z,6Z)-6-(4-(2-Dimethylaminoethoxymethyl)benzylidene)-3-(3-thenylidene)-2,5-piperazinedione] | inhibition at 50 µM (Table 1, second part): 71% |
| – | – | – | 65% | – | O=C(NCCCCN1CCc2ccccc2C1)c1ccc(/C=c2\[nH]c(=O)/c(=C/c3ccccc3)[nH]c2=O)cc1 [Compound 5379] | IC50 (Table 1, second part): 15 µM |
| – | – | – | – | – | CN(C)CCCOc1ccc(/C=c2\[nH]c(=O)/c(=C/c3cccc4ccccc34)[nH]c2=O)cc1 [Compound 5200, (3Z,6Z)-6-(4-(3-Dimethylaminopropoxy)benzylidene)-3-(1-Naphthylmethylene)-2,5-piperazinedione] | INHIBITION OF PAI-1 (degree of inhibition) (20 μM, Table 1, second part): 10%; INHIBITION OF PAI-1 (degree of inhibition) (100 μM, Table 1, second part): 10% |
| – | – | – | – | – | CN(C)CCCOc1ccc(/C=c2\[nH]c(=O)/c(=C/c3ccc(C(=O)NCCN4CCc5ccccc5C4)cc3)[nH]c2=O)cc1 [Compound 5386, N-(2-(1,2,3,4-Tetrahydro-2-isoquinolyl)ethyl)-4-((3Z,6Z)-6-(4-(3-dimethylaminopropoxy)benzylidene)-2,5-dioxo-3-piperazinylidene)methylbenzamide] | IC50 (Table 1, second part): 18 µM |
| – | – | – | 4% | 11% | CN(C)CCCOc1ccc(/C=c2\[nH]c(=O)/c(=C/c3cccnc3)[nH]c2=O)cc1 [Compound 5028, (3Z,6Z)-6-(4-(3-Dimethylaminopropoxy)benzylidene)-3-(3-pyridylmethylene)-2,5-piperazinedione] | inhibition at 50 µM (Table 1, second part): 4% |
| 0% | 1% | 62% | – | – | COc1ccc(/C=c2\[nH]c(=O)/c(=C/c3cc4ccccc4[nH]3)[nH]c2=O)cc1 [Compound 1718, (3Z,6Z)-3-(2-Indolylmethylene)-6-(4-methoxybenzylidene)-2,5-piperazinedione] | INHIBITION OF PAI-1 (degree of inhibition) (6.25 μm, Table 1, first part): 1%; INHIBITION OF PAI-1 (degree of inhibition) (12.5 μm, Table 1, first part): 0%; IC50 (Table 2): 50 to 100 µM |
| – | – | – | – | – | CN(C)CCCOc1ccc(/C=c2\[nH]c(=O)/c(=C/c3ccc(C(=O)NCCCCN4CCc5ccccc5C4)cc3)[nH]c2=O)cc1 [Compound 5397, N-(4-(1,2,3,4-Tetrahydro-2-isoquinolyl)butyl)-4-((3Z,6Z)-6-(4-(3-dimethylaminopropoxy)benzylidene)-2,5-dioxo-3-piperazinylidene)methylbenzamide] | INHIBITION OF PAI-1 (degree of inhibition) (20 μM, Table 1, second part): 42% |
| – | – | – | 60% | 43% | CN(C)CC(=O)NCc1ccc(/C=c2\[nH]c(=O)/c(=C/c3ccccc3)[nH]c2=O)cc1 [Compound 5061, (3Z,6Z)-6-Benzylidene-3-(4-dimethylaminoacetamidomethylbenzylidene)-2,5-piperazinedione] | inhibition at 50 µM (Table 1, second part): 48% |
| 1% | 2% | 89% | – | – | COc1ccc(/C=c2\[nH]c(=O)/c(=C/c3cn(S(C)(=O)=O)c4ccccc34)[nH]c2=O)cc1 [Compound 1693, (3Z,6Z)-3-(1-methanesulfonyl-3-indolyl)methylene-6-(4-methoxybenzylidene)-2,5-piperazinedione] | INHIBITION OF PAI-1 (degree of inhibition) (12.5 μm, Table 1, first part): 0%; IC50 (Table 2): 50 to 100 µM |
| – | – | – | 73% | 80% | CN(C)CCOc1ccc(/C=c2\[nH]c(=O)/c(=C/c3ccsc3)[nH]c2=O)cc1 [Compound 5071, (3Z,6Z)-6-(4-(2-Dimethylaminoethoxy)benzylidene)-3-(3-thenylidene)-2,5-piperazinedione] | inhibition at 50 µM (Table 1, second part): 82% |
| – | – | – | – | – | O=C(NCCCN1CCc2ccccc2C1)c1ccc(/C=c2\[nH]c(=O)/c(=C/c3ccccc3)[nH]c2=O)cc1 [Compound 5394.HCl] | INHIBITION OF PAI-1 (degree of inhibition) (20 μM, Table 1, second part): 62%; IC50 (Table 1, second part): 17 µM |
| 26% | 11% | 13% | – | – | O=c1[nH]/c(=C\c2ccccc2)c(=O)[nH]/c1=C\C=C(c1ccccc1)c1ccccc1 [Compound 1922, (3Z,6Z)-3-Benzylidene-6-(γ-phenylcinnamylidene)-2,5-piperazinedione] | INHIBITION OF PAI-1 (degree of inhibition) (6.25 μm, Table 1, first part): 14%; INHIBITION OF PAI-1 (degree of inhibition) (12.5 μm, Table 1, first part): 13% |
| – | – | – | 42% | 34% | CN(C)CCOCc1ccc(/C=c2\[nH]c(=O)/c(=C/c3ccoc3)[nH]c2=O)cc1 [Compound 5077, (3Z,6Z)-6-(4-(2-Dimethylaminoethoxymethyl)benzylidene)-3-(3-furylmethylene)-2,5-piperazinedione] | inhibition at 50 µM (Table 1, second part): 46% |
| – | – | – | 26% | 47% | CN(C)CC(=O)NCc1ccc(/C=c2\[nH]c(=O)/c(=C/c3ccsc3)[nH]c2=O)cc1 [Compound 5074, (3Z,6Z)-6-(4-Dimethylaminoacetamidomethylbenzylidene)-3-(3-thenylidene)-2,5-piperazinedione] | inhibition at 50 µM (Table 1, second part): 57% |
| 20% | 39% | 33% | – | – | Cc1[nH]cnc1/C=c1\[nH]c(=O)/c(=C/c2ccccc2)[nH]c1=O [Compound 1927, (3Z,6Z)-3-Benzylidene-6-(4-(5-methylimidazolyl))methylene-2,5-piperazinedione] | INHIBITION OF PAI-1 (degree of inhibition) (6.25 μm, Table 1, first part): 14%; INHIBITION OF PAI-1 (degree of inhibition) (12.5 μm, Table 1, first part): 22% |
| – | – | – | 10% | 34% | CN(C)CCCOc1ccc(/C=c2\[nH]c(=O)/c(=C/c3ccc(Cn4ccnc4)cc3)[nH]c2=O)cc1 [Compound 5026, (3Z,6Z)-3-(4-(3-Dimethylaminopropoxy)benzylidene)-6-(4-(1-imidazolyl)methylbenzylidene)-2,5-piperazinedione] | – |

| Compound | INHIBITION OF PAI-1 (degree of inhibition) (25 μm, Table 1, first part) | INHIBITION OF PAI-1 (degree of inhibition) (50 μm, Table 1, first part) | INHIBITION OF PAI-1 (degree of inhibition) (100 μm, Table 1, first part) | inhibition at 20 µM (20 μM, Table 1, second part) | inhibition at 100 µM (100 μM, Table 1, second part) | also measured |
| --- | --- | --- | --- | --- | --- | --- |
| CC(C)(C)OC(=O)n1cc(/C=c2\[nH]c(=O)/c(=C/c3c(Cl)cccc3Cl)[nH]c2=O)c2ccccc21 [Compound 1560, (3Z,6Z)-3-(2,6-Dichlorobenzylidene)-6-(1-tert-butoxycarbonyl-3-indolyl)methylene-2,5-piperazinedione] | 46% | 48% | 50% | – | – | INHIBITION OF PAI-1 (degree of inhibition) (6.25 μm, Table 1, first part): 13%; INHIBITION OF PAI-1 (degree of inhibition) (12.5 μm, Table 1, first part): 34%; IC50 (Table 2): 50 to 100 µM |
